PubChem BioAssay AID2060614 (Molecular Pharmacology Branch, DTP, NCI, 2025)

Tested on: 598228-144-R-J1-PDC complex spheroids, viability
Test: Anticancer human tumor 598228-144-R-J1-PDC patient-derived serous endometrial adenocarcinoma cell line growth inhibition [CLK]
Settings: for IC50: curve of first compound; for viability, T/C: stronger effect = lower value
How it was run: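 Patient-derived tumor cells grown as complex spheroids with HUVEC endothelial cells and mesenchymal stem cells, treated with drug combinations. Concentrations descend in half-log steps from near clinical Cmax, or from 10 microM if Cmax unknown.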

[1] = second compound 0.0316 µM, first compound 0.0316 µM
[2] = second compound 0.0316 µM, first compound 0.1 µM
[3] = second compound 0.0316 µM, first compound 0.316 µM
[4] = second compound 0.0316 µM, first compound 1 µM
[5] = second compound 0.0316 µM, first compound 3.16 µM
[6] = second compound 0.0316 µM, first compound 10 µM
[7] = second compound 0.1 µM, first compound 0.0316 µM
[8] = second compound 0.1 µM, first compound 0.1 µM
[9] = second compound 0.1 µM, first compound 0.316 µM
[10] = second compound 0.1 µM, first compound 1 µM
[11] = second compound 0.1 µM, first compound 3.16 µM
[12] = second compound 0.1 µM, first compound 10 µM
[13] = second compound 0.316 µM, first compound 0.0316 µM
[14] = second compound 0.316 µM, first compound 0.1 µM
[15] = second compound 0.316 µM, first compound 0.316 µM
[16] = second compound 0.316 µM, first compound 1 µM
[17] = second compound 0.316 µM, first compound 3.16 µM
[18] = second compound 0.316 µM, first compound 10 µM
[19] = second compound 1 µM, first compound 0.0316 µM
[20] = second compound 1 µM, first compound 0.1 µM
[21] = second compound 1 µM, first compound 0.316 µM
[22] = second compound 1 µM, first compound 1 µM
[23] = second compound 1 µM, first compound 3.16 µM
[24] = second compound 1 µM, first compound 10 µM
[25] = second compound 3.16 µM, first compound 0.0316 µM
[26] = second compound 3.16 µM, first compound 0.1 µM
[27] = second compound 3.16 µM, first compound 0.316 µM
[28] = second compound 3.16 µM, first compound 1 µM
[29] = second compound 3.16 µM, first compound 3.16 µM
[30] = second compound 3.16 µM, first compound 10 µM
[31] = second compound 10 µM, first compound 0.0316 µM
[32] = second compound 10 µM, first compound 0.1 µM
[33] = second compound 10 µM, first compound 0.316 µM
[34] = second compound 10 µM, first compound 1 µM
[35] = second compound 10 µM, first compound 3.16 µM
[36] = second compound 10 µM, first compound 10 µM
[37] = second compound 0.0316 µM, first compound 0.00316 µM
[38] = second compound 0.0316 µM, first compound 0.01 µM
[39] = second compound 0.1 µM, first compound 0.00316 µM
[40] = second compound 0.1 µM, first compound 0.01 µM
[41] = second compound 0.316 µM, first compound 0.00316 µM
[42] = second compound 0.316 µM, first compound 0.01 µM
[43] = second compound 1 µM, first compound 0.00316 µM
[44] = second compound 1 µM, first compound 0.01 µM
[45] = second compound 3.16 µM, first compound 0.00316 µM
[46] = second compound 3.16 µM, first compound 0.01 µM
[47] = second compound 10 µM, first compound 0.00316 µM
[48] = second compound 10 µM, first compound 0.01 µM
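Also: spheroids exposed to compounds for seven days before readout.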
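For viability, T/C in this document: 100% = DMSO vehicle control wells.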

`CC(CO)NC(=O)c1cc(-c2ccc(Cl)cc2)nn(-c2cnn(C)c2)c1=O` (stereo not drawn) + CNC(=O)c1ccc(Nc2nc(OC3CCCC3)c3c(-c4ccc5nc(C)oc5c4)c[nH]c3n2)c(OC)c1 was tested, and the IC50 (second compound 0.0316 µM) was > 10 µM, the IC50 (second compound 0.1 µM) was > 10 µM and the IC50 (second compound 0.316 µM) was > 10 µM. The IC50 (second compound 1 µM) was > 10 µM, the IC50 (second compound 3.16 µM) was > 10 µM and the IC50 (second compound 10 µM) was > 10 µM. The viability, T/C [1] was 124%, the viability, T/C [2] was 102% and the viability, T/C [3] was 102%. It also gave a viability, T/C [4] of 104%, a viability, T/C [5] of 92.8% and a viability, T/C [6] of 94.4%. The viability, T/C [7] was 94.9%, the viability, T/C [8] was 107% and the viability, T/C [9] was 96.5%. It also gave a viability, T/C [10] of 103%, a viability, T/C [11] of 106% and a viability, T/C [12] of 83.8%. The viability, T/C [13] was 111%, the viability, T/C [14] was 104% and the viability, T/C [15] was 92.8%. The viability, T/C [16] was 96.5%, the viability, T/C [17] was 106% and the viability, T/C [18] was 96.8%. The viability, T/C [19] was 111%, the viability, T/C [20] was 104% and the viability, T/C [21] was 112%. It also gave a viability, T/C [22] of 105%, a viability, T/C [23] of 111% and a viability, T/C [24] of 87.6%. For the same compound, the viability, T/C [25] was 85.7%, the viability, T/C [26] was 94.7% and the viability, T/C [27] was 92.2%. It also gave a viability, T/C [28] of 102%, a viability, T/C [29] of 94.8% and a viability, T/C [30] of 81.4%. For the same compound, the viability, T/C [31] was 90.4%, the viability, T/C [32] was 77% and the viability, T/C [33] was 95.8%. The viability, T/C [34] was 77.5%, the viability, T/C [35] was 112% and the viability, T/C [36] was 83.1%.

Compound `CC(Nc1ccc2c(c1)OCCn1cc(N3C(=O)OCC3C(F)F)nc1-2)C(N)=O` (stereo not drawn) + CNC(=O)c1ccc(Nc2nc(OC3CCCC3)c3c(-c4ccc5nc(C)oc5c4)c[nH]c3n2)c(OC)c1 has an IC50 (second compound 0.0316 µM) of 0.309 µM, an IC50 (second compound 0.1 µM) of 0.31 µM and an IC50 (second compound 0.316 µM) of 0.248 µM. It also gave an IC50 (second compound 1 µM) of 0.159 µM, an IC50 (second compound 3.16 µM) of 0.145 µM and an IC50 (second compound 10 µM) of 0.1 µM. It also gave a viability, T/C [1] of 91.9%, a viability, T/C [2] of 62.8% and a viability, T/C [3] of 53.1%. The viability, T/C [4] was 38.2%, the viability, T/C [5] was 31.5% and the viability, T/C [6] was 25.8%. For the same compound, the viability, T/C [7] was 88.2%, the viability, T/C [8] was 70.3% and the viability, T/C [9] was 47%. The viability, T/C [10] was 35.5%, the viability, T/C [11] was 35.5% and the viability, T/C [12] was 22.1%. It also gave a viability, T/C [13] of 77.5%, a viability, T/C [14] of 58.5% and a viability, T/C [15] of 51.6%. For the same compound, the viability, T/C [16] was 32.2%, the viability, T/C [17] was 26.2% and the viability, T/C [18] was 22.9%. The viability, T/C [19] was 75.2%, the viability, T/C [20] was 56.4% and the viability, T/C [21] was 37.4%. It also gave a viability, T/C [22] of 32.4%, a viability, T/C [23] of 23.1% and a viability, T/C [24] of 12.8%. It also gave a viability, T/C [25] of 69.7%, a viability, T/C [26] of 58.4% and a viability, T/C [27] of 33.8%. The viability, T/C [28] was 26.4%, the viability, T/C [29] was 21.2% and the viability, T/C [30] was 13.7%. It also gave a viability, T/C [31] of 70.3%, a viability, T/C [32] of 50.6% and a viability, T/C [33] of 33.1%. The viability, T/C [34] was 22.9%, the viability, T/C [35] was 18.8% and the viability, T/C [36] was 12.6%.

In the case of `CCN1CCN(Cc2ccc(Nc3ncc(F)c(-c4cc(F)c5nc(C)n(C(C)C)c5c4)n3)nc2)CC1` + CNC(=O)c1ccc(Nc2nc(OC3CCCC3)c3c(-c4ccc5nc(C)oc5c4)c[nH]c3n2)c(OC)c1, the IC50 (second compound 0.0316 µM) is reported as > 1 µM, the IC50 (second compound 0.1 µM) is reported as > 1 µM and the IC50 (second compound 0.316 µM) is reported as > 1 µM. The IC50 (second compound 1 µM) was > 1 µM, the IC50 (second compound 3.16 µM) was > 1 µM and the IC50 (second compound 10 µM) was > 1 µM. The viability, T/C [37] was 104%, the viability, T/C [38] was 114% and the viability, T/C [1] was 105%. For the same compound, the viability, T/C [2] was 116%, the viability, T/C [3] was 112% and the viability, T/C [4] was 88.8%. The viability, T/C [39] was 110%, the viability, T/C [40] was 110% and the viability, T/C [7] was 126%. For the same compound, the viability, T/C [8] was 109%, the viability, T/C [9] was 120% and the viability, T/C [10] was 97.5%. It also gave a viability, T/C [41] of 119%, a viability, T/C [42] of 107% and a viability, T/C [13] of 118%. The viability, T/C [14] was 99%, the viability, T/C [15] was 108% and the viability, T/C [16] was 87.5%. For the same compound, the viability, T/C [43] was 105%, the viability, T/C [44] was 89.8% and the viability, T/C [19] was 91.8%. For the same compound, the viability, T/C [20] was 119%, the viability, T/C [21] was 106% and the viability, T/C [22] was 78.6%. For the same compound, the viability, T/C [45] was 95.2%, the viability, T/C [46] was 92.5% and the viability, T/C [25] was 82.3%. For the same compound, the viability, T/C [26] was 92.5%, the viability, T/C [27] was 95.8% and the viability, T/C [28] was 93%. It also gave a viability, T/C [47] of 95.5%, a viability, T/C [48] of 89.4% and a viability, T/C [31] of 90.2%. The viability, T/C [32] was 96.8%, the viability, T/C [33] was 108% and the viability, T/C [34] was 80.5%.

For `COc1c(OCCCN2CCOCC2)ccc2c3n(c(=NC(=O)c4cnc(N)nc4)nc12)CCN3` + CNC(=O)c1ccc(Nc2nc(OC3CCCC3)c3c(-c4ccc5nc(C)oc5c4)c[nH]c3n2)c(OC)c1, the IC50 (second compound 0.0316 µM) was 0.0261 µM, the IC50 (second compound 0.1 µM) was 0.0302 µM and the IC50 (second compound 0.316 µM) was 0.0184 µM. The IC50 (second compound 1 µM) was 0.0152 µM, the IC50 (second compound 3.16 µM) was 0.0106 µM and the IC50 (second compound 10 µM) was 0.00994 µM. The viability, T/C [37] was 85.7%, the viability, T/C [38] was 65.5% and the viability, T/C [1] was 49%. It also gave a viability, T/C [2] of 26.5%, a viability, T/C [3] of 15.7% and a viability, T/C [4] of 9.14%. The viability, T/C [39] was 104%, the viability, T/C [40] was 74.2% and the viability, T/C [7] was 51.4%. The viability, T/C [8] was 25.8%, the viability, T/C [9] was 13.6% and the viability, T/C [10] was 5.09%. The viability, T/C [41] was 97.8%, the viability, T/C [42] was 65.4% and the viability, T/C [13] was 35.7%. For the same compound, the viability, T/C [14] was 19.6%, the viability, T/C [15] was 11.3% and the viability, T/C [16] was 5.13%. The viability, T/C [43] was 86.8%, the viability, T/C [44] was 61.4% and the viability, T/C [19] was 29.9%. The viability, T/C [20] was 16.6%, the viability, T/C [21] was 8.67% and the viability, T/C [22] was 5.42%. For the same compound, the viability, T/C [45] was 73.5%, the viability, T/C [46] was 51.5% and the viability, T/C [25] was 28.4%. For the same compound, the viability, T/C [26] was 13.9%, the viability, T/C [27] was 7.8% and the viability, T/C [28] was 3.58%. It also gave a viability, T/C [47] of 71.2%, a viability, T/C [48] of 50.3% and a viability, T/C [31] of 24.8%. The viability, T/C [32] was 12.9%, the viability, T/C [33] was 6.23% and the viability, T/C [34] was 5.18%.
